{"source": "paper PMC5339874", "about": "“Fluorene-9-bisphenol is anti-oestrogenic and may cause adverse pregnancy outcomes in mice” (Nature Communications, 2017)", "format_in_all_cases": "in vivo", "key": {"CD-1 mice": {"test_system": "CD-1 mice", "experiment": "Q-RT-PCR validation of the microarray", "settings": "50 mg/kg bw/d BHPF, 3 days", "experimental": "The uteri, ovaries and livers were collected for total RNA isolation. Total RNA was isolated using Trizol reagent (Invitrogen) and further purified by NucleoSpin RNA Clean-up (Macherey-Nagel, Germany). Fluorescence labelling of the RNA samples was performed with a Jingxin cRNA linear amplification and labelling kit (CapitalBio) according to the manufacturer's instructions. The total RNA from each pool of tissue samples (a mixture from three animals) was used for microarray analysis. Cy3 dCTP was used to label the samples. The labelled products were added to SurePrint G3 mouse gene expression 8 × 60 K microarrays (Agilent) and incubated overnight at 42 °C. Following hybridization, the gene arrays were washed and scanned using an Agilent G2565CA Microarray Scanner. Glyceraldehyde 3-phosphate dehydrogenase (GAPDH) was used as an endogenous control to monitor the quality of the target preparation. The data were processed with feature extraction software (GeneSpring GX v.11; Agilent). The raw signals were log-transformed and normalized with the percentile shift normalization method. All arrays met the minimum Agilent QA/QC standards. To verify the data from the gene array, 14 genes were chosen as candidates for Q-RT-PCR. Primers are listed in Supplementary Table 4. GAPDH was used as an endogenous control. Amplification was performed using SYBR Green PCR master mix (Applied Biosystems) according to the manufacturer's instructions. The relative expression was quantified using the 2^(−ΔΔCt) method. The Gene Ontology (GO) and KEGG pathway enrichment analyses were performed with DAVID (refs [40], [41])."}, "female CD-1 mice [1]": {"test_system": "female CD-1 mice", "experiment": "Exposure experiment through drinking water", "settings": "10-day exposure via drinking water; no statistically significant difference (P>0.05)", "experimental": "Mice with a maximal difference in body weight of 1 g were selected for the experiments and randomly assigned to either the treatment or control groups. […] The animals were fed ad libitum an oestrogen-free diet from Trophic Animal Feed High-tech Co., Ltd. (Nantong, China), and drinking water was provided ad libitum in glass bottles. Before the experiments, the mice were randomly assigned to five groups (n=8). Ultra-pure water was used as a control. FULV was dissolved in ultra-pure water to a concentration of 100 ng l^−1 and used as a positive control. […] Two plastic drinking bottles labelled ‘BPA-free', of different brands, were purchased and denoted Bottle A and Bottle B. The plastic bottles were filled with boiling ultra-pure water from a stainless steel electric water heater and allowed to cool down to room temperature before the animal experiment. The BHPF levels in the cooled boiled waters from Bottle A, Bottle B and the stainless steel electric water heater were determined by GC–MS. No BHPF was detected in the cooled boiled water from the stainless steel electric water heater. The cooled boiled waters from Bottle A and Bottle B were transferred to glass bottles during the experiment. The exposure experiment was performed for 10 days beginning on PND 24. After the period of exposure, the mice were weighed and killed in turns for each group, whereby in each turn only one mouse in a group was killed. Blood was collected by cardiac puncture soon after each animal was killed, and the uteri were removed, blotted and weighed by one experimenter to reduce the risk of bias in the data collection and immediately frozen in liquid nitrogen for gene expression analysis. The relative uterine weight was calculated to evaluate the anti-uterotrophic activity. […] The serum BHPF levels were analysed by GC–MS using the same method as that for human serum. The gene expressions of sprr2a and sprr2b in the uteri were determined by Q-RT-PCR."}, "female CD-1 mice [2]": {"test_system": "female CD-1 mice", "experiment": "Improved anti-uterotrophic assay, daily oral gavage for 10 days beginning on PND 24", "settings": "BHPF at 27.8 mg kg^−1 bw d^−1", "experimental": "The animals were fed ad libitum with a basic diet from the Laboratory Animal Center of the Academy of Military Medical Sciences (Beijing, China), and drinking water was provided ad libitum. […] The volume of vehicle or chemical solutions administered was adjusted daily based on body weight measured during the dosing period according to the volume-body weight ratio of 5 ml kg^−1 bw."}}}
{"smiles": "Oc1ccc(C2(c3ccc(O)cc3)c3ccccc3-c3ccccc32)cc1", "note": "[BHPF, 9,9-bis(4-hydroxyphenyl)-fluorene]", "values": [{"measurement": "Actb gene expression change, liver, Q-RT-PCR", "setting": "CD-1 mice", "value": 1.25}, {"measurement": "Actb gene expression change, ovary, Q-RT-PCR", "setting": "CD-1 mice", "value": 1.13}, {"measurement": "Actb gene expression change, uterus, Q-RT-PCR", "setting": "CD-1 mice", "value": 1.13}, {"measurement": "Cfd gene expression change, liver, Q-RT-PCR", "setting": "CD-1 mice", "value": -2.43}, {"measurement": "Cfd gene expression change, ovary, Q-RT-PCR", "setting": "CD-1 mice", "value": 2.28}, {"measurement": "Cfd gene expression change, uterus, Q-RT-PCR", "setting": "CD-1 mice", "value": -2.85}, {"measurement": "Orm1 gene expression change, liver, Q-RT-PCR", "setting": "CD-1 mice", "value": -1.41}, {"measurement": "Orm1 gene expression change, ovary, Q-RT-PCR", "setting": "CD-1 mice", "value": 2.19}, {"measurement": "Orm1 gene expression change, uterus, Q-RT-PCR", "setting": "CD-1 mice", "value": 5.17}, {"measurement": "Spp1 gene expression change, liver, Q-RT-PCR", "setting": "CD-1 mice", "value": -1.51}, {"measurement": "Spp1 gene expression change, ovary, Q-RT-PCR", "setting": "CD-1 mice", "value": -1.68}, {"measurement": "Spp1 gene expression change, uterus, Q-RT-PCR", "setting": "CD-1 mice", "value": 3.43}, {"measurement": "Sprr1a gene expression change, liver, Q-RT-PCR", "setting": "CD-1 mice", "value": 4.11}, {"measurement": "Sprr1a gene expression change, ovary, Q-RT-PCR", "setting": "CD-1 mice", "value": 1.16}, {"measurement": "Sprr1a gene expression change, uterus, Q-RT-PCR", "setting": "CD-1 mice", "value": -2.01}, {"measurement": "Sprr2a2 gene expression change, liver, Q-RT-PCR", "setting": "CD-1 mice", "value": 3.43}, {"measurement": "Sprr2a2 gene expression change, ovary, Q-RT-PCR", "setting": "CD-1 mice", "value": -8.94}, {"measurement": "Sprr2a2 gene expression change, uterus, Q-RT-PCR", "setting": "CD-1 mice", "value": -5.70}, {"measurement": "Sprr2b gene expression change, liver, Q-RT-PCR", "setting": "CD-1 mice", "value": 4.76}, {"measurement": "Sprr2b gene expression change, ovary, Q-RT-PCR", "setting": "CD-1 mice", "value": -9.65}, {"measurement": "Sprr2b gene expression change, uterus, Q-RT-PCR", "setting": "CD-1 mice", "value": -9.58}, {"measurement": "Sprr2f gene expression change, liver, Q-RT-PCR", "setting": "CD-1 mice", "value": 4.41}, {"measurement": "Sprr2f gene expression change, ovary, Q-RT-PCR", "setting": "CD-1 mice", "value": -5.28}, {"measurement": "Sprr2f gene expression change, uterus, Q-RT-PCR", "setting": "CD-1 mice", "value": -5.78}, {"measurement": "Sprr2g gene expression change, liver, Q-RT-PCR", "setting": "CD-1 mice", "value": 3.68}, {"measurement": "Sprr2g gene expression change, ovary, Q-RT-PCR", "setting": "CD-1 mice", "value": -5.70}, {"measurement": "Sprr2g gene expression change, uterus, Q-RT-PCR", "setting": "CD-1 mice", "value": -1.83}, {"measurement": "chil3 gene expression change, liver, Q-RT-PCR", "setting": "CD-1 mice", "value": -2.81}, {"measurement": "chil3 gene expression change, ovary, Q-RT-PCR", "setting": "CD-1 mice", "value": -3.92}, {"measurement": "chil3 gene expression change, uterus, Q-RT-PCR", "setting": "CD-1 mice", "value": -3.07}, {"measurement": "cyp2e1 gene expression change, liver, Q-RT-PCR", "setting": "CD-1 mice", "value": 4.06}, {"measurement": "cyp2e1 gene expression change, ovary, Q-RT-PCR", "setting": "CD-1 mice", "value": 1.69}, {"measurement": "cyp2e1 gene expression change, uterus, Q-RT-PCR", "setting": "CD-1 mice", "value": 4.00}, {"measurement": "ll1f6 gene expression change, liver, Q-RT-PCR", "setting": "CD-1 mice", "value": 2.66}, {"measurement": "ll1f6 gene expression change, ovary, Q-RT-PCR", "setting": "CD-1 mice", "value": -4.29}, {"measurement": "ll1f6 gene expression change, uterus, Q-RT-PCR", "setting": "CD-1 mice", "value": -4.66}, {"measurement": "serp1d gene expression change, liver, Q-RT-PCR", "setting": "CD-1 mice", "value": 2.48}, {"measurement": "serp1d gene expression change, ovary, Q-RT-PCR", "setting": "CD-1 mice", "value": 1.59}, {"measurement": "serp1d gene expression change, uterus, Q-RT-PCR", "setting": "CD-1 mice", "value": 30.91}, {"measurement": "GAPDH gene expression change, liver, Q-RT-PCR", "setting": "CD-1 mice; endogenous control", "value": 1.00}, {"measurement": "GAPDH gene expression change, ovary, Q-RT-PCR", "setting": "CD-1 mice; endogenous control", "value": 1.00}, {"measurement": "GAPDH gene expression change, uterus, Q-RT-PCR", "setting": "CD-1 mice; endogenous control", "value": 1.00}, {"measurement": "expression of sprr2a in the uteri (Q-RT-PCR)", "setting": "female CD-1 mice [1]", "value": "decreased"}, {"measurement": "anti-uterotrophic activity compared with FULV", "setting": "female CD-1 mice [2]", "value": "close to that of FULV at 2 mg kg^−1 bw d^−1"}]}
